According to patent US20230158084A1, “PROBIOTICS, METABOLITES, AND USES THEREOF” (California Institute of Technology, priority 2018, published 2023):
Entries after “also recorded” stand apart in the source; their conditions may differ.

Tests used:
[1] = system: pyramidal neurons in the L5 of the mPFC; experiment: Electrophysiology in acute slices from treated BTBR mice (mEPSC, mIPSC, excitability); assay type: in vivo, mouse; conditions: BTBR mice given 10 mM in drinking water starting 3-4 weeks of age
Description: FIGS. 8A-E are a series of graphs illustrating effects of microbial metabolites on brain activity of mice in accordance with some embodiments herein. Mice were orally administered 10 mM Taurine or 5AV in drinking water starting 3-4 weeks of age mating, and throughout their lifetime. FIG. 8A illustrates effects on amplitude and frequency of mEPSCs in pyramidal neurons in the L5 of the mPFC in acute slices from BTBR mice treated with 5AV, Taurine, or control. FIG. 8B illustrates effects on amplitude and frequency of mIPSCs in pyramidal neurons in the L5 of the mPFC in acute slices from BTBR mice treated with 5AV, Taurine, or control. Hypotheses for FIGS. 8A-B were tested by ANOVA on trimmed means (10%) and subsequent post-hoc tests. FIG. 8C illustrates effects on excitability of pyramidal neurons in the L5 of the mPFC in acute slices from BTBR mice treated with 5AV, Taurine, or control in response to step-wise injection current, as measured by the number of action potential spikes. 2-way ANOVA. BTBR mice were orally administered 10 mM Taurine or 5AV in drinking water starting 3-4 weeks of age mating, and throughout their lifetime, and effects on the brain were observed. FIG. 8A illustrates effects on amplitude and frequency of mEPSCs in pyramidal neurons in the L5 of the mPFC in acute slices from BTBR mice treated with 5AV, Taurine, or control. FIG. 8B illustrates effects on amplitude and frequency of mIPSCs in pyramidal neurons in the L5 of the mPFC in acute slices from BTBR mice treated with 5AV, Taurine, or control. Hypotheses for FIGS. 8A-B were tested by ANOVA on trimmed means (10%) and subsequent post-hoc tests. FIG. 8C illustrates effects on excitability of pyramidal neurons in the L5 of the mPFC in acute slices from BTBR mice treated with 5AV, Taurine, or control in response to step-wise injection current, as measured by the number of action potential spikes. 2-way ANOVA.

[2] = system: lncRNAs and ASD-relevant isoforms in the STR and PFC of BTBR mice; experiment: qPCR of BTBR brains after 5AV and taurine administration; assay type: in vivo, mouse; conditions: adult metabolite-treated BTBR mice
Excerpt: (§1) FIGS. 5A-D are a series of drawings illustrating that differential metabolites impact ASD-relevant behaviors in SPF mice in accordance with some embodiments herein. FIG. 5A: The abundance of select metabolites in the offspring microbiome is correlated with behavior of male offspring. Spearman correlation between the microbiome and mouse behavior, by donor (See FIGS. 1A-0). Benjamini-Hochberg adjusted p-values (α≤0.05) for significant correlations are noted. Color scale denotes Spearman ρ. […] Groups of mice were orally administered 10 mM Taurine or 5AV in drinking water before mating, and throughout their lifetime. Offspring were tested by marble burying, direct social interaction, and open field tests, and compared to untreated vehicle controls. Results are aggregated from 2 independent experiments. NControl=42, N5AV=52, NTaurine=36. Bar plots denote mean and S.E.M. Hypothesis on differences in means were tested by ANOVA on trimmed means (10%) and subsequent posthoc tests. FIGS. 5E-L: qPCR of BTBR brains after 5AV and taurine administration. Results are aggregated from 2 independent experiments. Hypothesis on differences in means were tested by ANOVA on trimmed means (10%) and subsequent posthoc tests. FIGS. 5M-V: series of graphs illustrating E18 B6 feeding 5AV and Taurine targeted metabolomics.
In view of the results described herein, it was further hypothesized that 5AV and taurine exert their effects on behavioral outcomes by altering expression patterns in the brain. To address this hypothesis, brains were collected from adult metabolite-treated BTBR mice and relative expression was quantified for select genes and isoforms that are differentially expressed between TD- and ASD-colonized offspring (FIGS. 3A-J). […] To test whether the expression of splice variants containing exons highlighted by rMATs analysis (see FIG. 3B, Tables 2.1-2.3), isoforms of interest were identified, which contain or exclude exons implicated by the analysis. […] Therefore, treatment with 5AV and taurine according to some embodiments affects the expression of lncRNAs and of specific ASD-relevant isoforms in the brains of BTBR mice treated throughout their lives.

BTBR mice = experiment: ASD-related behaviors overall (marble burying, direct social interaction, open field) in BTBR mice; assay type: in vivo, mouse; conditions: for ASD-related behaviors, administration post weaning: BTBR mice, 10 mM in drinking water to juvenile mice starting 3-4 weeks of age through adulthood; for ASD-related behaviors / symptoms, prenatal administration: BTBR mouse model, 10 mM orally in drinking water from before mating (conception) through adulthood
Description: as §1, with “Benjamini-Hochberg adjusted p-values (α≤0.05) for significant correlations are noted.” left out, “[…]=52,” for “N5AV=52,”, “metabolomics. […] In FIGS. 9A-K, mice were orally administered 10 mM Taurine or 5AV in drinking water starting 3-4 weeks of age mating, and throughout their lifetime. Offspring were tested by marble burying, direct social interaction, and open field tests, and compared to untreated vehicle controls. Results are aggregated from 2 independent experiments. NControl=20, […]=18, NTaurine=20. Bar plots denote mean and S.E.M. hypothesis on differences means were tested by ANOVA on trimmed means (10%) and subsequent posthoc tests. FIGS. 9L-Q illustrate basal properties of L5 pyramidal neurons in the mPFC. […] Taurine was orally administered to BTBR mice, a validated mouse model for ASD (McFarlane et al., 2008), from conception through adulthood to capture both prenatal and postnatal neurodevelopmental periods. […] It is will appreciated that the blood-brain barrier comprises endothelial cells, and selectively permits the movement of substances between circulating blood and the brain, for example permitting some molecules to pass from the blood to the brain, while preventing other molecules from passing from the blood to the brain. As such, it will be appreciated that at a given stage of development, some molecules may readily pass through the blood brain barrier, while others may not.” for “metabolomics.”

GABA receptor = conditions: literature statement; cited from earlier work

With NCCS(=O)(=O)O [taurine] the “other effects on neuron activity (mIPSCs, excitability; FIGS. 8B-E)” value [1] was “not otherwise observed”, the “expression of isoforms containing a A3SS event in Gigyf2” value [2] was “increases the expression” and the “expression of the lncRNAs Gm17259 and Gm13016 in the STR” value ([2]; striatum) was “increased”. For the same compound, the “ASD-related behaviors, administration post weaning” value (BTBR mice) was “did not rescue behavioral alterations; also recorded: did not have these effects”, the “ASD-related behaviors, administration post weaning” value (BTBR mice; listed as Taurine) was “no effects on ASD-related behaviors” and the “ASD-related behaviors / symptoms, prenatal administration” value (shortened to “ASD-related behaviors / symptoms”) (BTBR mice) was “significant improvement in ASD-related behaviors; also recorded: reduces and/or prevents symptoms of ASD”. For the same compound, the “ASD-related behaviors / symptoms” value (BTBR mice; listed as Taurine) was “ameliorate ASD-related behavioral deficits” and the GABA receptor agonism (GABA receptor) was “weak GABA agonist”.

With NCCCCC(=O)O [5AV, 5-Aminovaleric acid] the mEPSC amplitude [1] was “induced a decrease in mEPSC amplitude, it was not statistically significant”, the “other effects on neuron activity (mIPSCs, excitability; FIGS. 8B-E)” value [1] was “not otherwise observed” and the “expression of isoforms of Tip12 and Pogz” value [2] was “marginal effects”. The “expression of the lncRNAs Gm17259 and Gm13016 in the STR” value ([2]; striatum) was “increased”, the “expression of transcripts of Neurexin 1 in the STR” value ([2]; striatum) was “increased in expression” and the “ASD-related behaviors, administration post weaning” value (BTBR mice) was “did not rescue behavioral alterations; also recorded: no effects on ASD-related behaviors; also recorded: did not have these effects”. For the same compound, the “ASD-related behaviors / symptoms” value (BTBR mice) was “significant improvement in ASD-related behaviors; also recorded: ameliorate ASD-related behavioral deficits; also recorded: reduces and/or prevents symptoms of ASD” and the GABA receptor agonism (GABA receptor) was “weak GABA receptor agonist”.
